US11564394B2, “Distorted gold (I)-phosphine complexes and methods for use as antifungal agents” (University of Kentucky Research Foundation, priority 2019, dated 2023)
Where “and” joins values, the source holds several entries; their conditions need not be identical. Equal entries are not always repeated. Where two headings read alike, the source gives them in different places.

Key:
[1] = system: C. albicans ATCC MYA-2310(S) (strain D); experiment: MIC determination (broth microdilution); format: cell-based, Candida albicans; settings: strain D = C. albicans ATCC MYA-2310(S); MIC-0; 48 h; listed as printed beside letter E
[2] = system: C. albicans ATCC 64124(R) (strain F); format: cell-based, Candida albicans; settings: strain F = C. albicans ATCC 64124(R); MIC-0; 48 h; listed as printed beside letter G
[3] = system: C. albicans ATCC MYA-1003(R) (strain A); format: cell-based, Candida albicans; settings: strain A = C. albicans ATCC MYA-1003(R); MIC-0; 48 h at 35° C.
[4] = system: C. krusei ATCC 6258 (strain I); experiment: MIC determination (broth microdilution); format: cell-based; settings: strain I = C. krusei ATCC 6258; MIC-0; 48 h; listed as split over r16 and r17 (r17 printed beside letter J)
[5] = system: C. glabrata ATCC 2001 (strain H); experiment: MIC determination (broth microdilution); format: cell-based, Candida glabrata; settings: strain H = C. glabrata ATCC 2001; MIC-0; 48 h at 35° C.
[6] = system: fungal strains (Candida spp., Cryptococcus spp., Aspergillus spp., Fusarium spp.); experiment: MIC determination, summary statements over the strain panel; format: cell-based; settings: for overall assessment as antifungals: panel of twenty fungal strains (Table 1)
[7] = system: C. auris AR Bank # 0384 (strain K) pre-formed biofilm; format: cell-based, Candida auris; settings: biofilm treated at 24 h, XTT
HEK-293 = experiment: Mammalian cytotoxicity assay (resazurin cell viability); format: cell-based; settings: HEK-293 (human embryonic kidney); read-out: IC50 for mammalian cell lines
From the text: (§1) For cytotoxicity assays, the human embryonic kidney cell line (HEK-293) was purchased from the ATCC. The human bronchial epithelial cell line (BEAS-2B), the human lung carcinoma cell line (A549), and the mouse macrophage cell line (J774A.1) were generous gifts from Prof. David K. Orren (University of Kentucky, Lexington, Ky.), Prof. Markos Leggas (University of Kentucky, Lexington, Ky.), and Prof. David J. Feola (University of Kentucky, Lexington, Ky.), respectively. A549, HEK-293, and BEAS-2B cells were cultured in Dulbecco's Modified Eagle's Medium (DMEM, catalog #VWRL0100, VWR, Chicago, Ill.) supplemented with 10% fetal bovine serum (FBS; from ATCC) and 1% penicillin/streptomycin (from ATCC) at 37° C. with 5% CO2. The J774A.1 cells were cultured in DMEM (catalog #30-2002, ATCC, Manassas, Va.), which was also supplemented with FBS and antibiotics and grown at 37° C. with 5% CO2.
(§2) To examine whether the compounds are safe for human cells, cytotoxicity assays were done against four mammalian cell lines: HEK-293, A549, BEAS-2B, and J774A.1 cells. […] HEK-293 and J774A.1 cells were plated at 1×10^4 cells/mL while A549 and BEAS-2B were plated at 3×10^3 cells/mL. Compounds were tested in concentrations ranging from 0.06 to 15.6 μg/mL with final concentration of DMSO at 0.5% (FIG. 4A-D).

BEAS-2B = experiment: as above; format: cell-based; settings: BEAS-2B (human bronchial epithelial); read-out: IC50 for mammalian cell lines
From the text: as §1, §2

A549 = experiment: as above; format: cell-based; settings: A549 (human lung carcinoma); read-out: IC50 for mammalian cell lines
From the text: as §1, §2

J774A.1 = experiment: as above; format: cell-based; settings: J774A.1 (murine macrophage); read-out: IC50 for mammalian cell lines
From the text: as §1, §2

[8] = system: C. auris AR Bank # 0384 (strain K); experiment: MIC determination (broth microdilution); format: cell-based, Candida auris; settings: strain K = C. auris AR Bank # 0384; MIC-0; 48 h (CAS read at 24 h); Table 1; also in Table 2
[9] = system: C. neoformans CN2 (strain O); experiment: MIC determination (broth microdilution); format: cell-based, Cryptococcus neoformans; settings: MIC-0, 72 h at 35° C.
[10] = system: four mammalian cell lines (A549, BEAS-2B, HEK-293, J774A.1); experiment: Mammalian cytotoxicity assays, summary over cell lines; format: cell-based; settings: for IC50: read-out: IC50 values (range over cell lines); for cell survival: at 15.6 μg/mL, excluding auranofin with J774A.1
From the text: as §1, §2

[11] = system: A. nidulans ATCC 38163 (strain Q); experiment: MIC determination (broth microdilution); format: cell-based, Aspergillus nidulans; settings: strain Q = A. nidulans ATCC 38163; MIC-0; 72 h at 35° C.
[12] = system: C. auris AR Bank # 0390 (strain L) pre-formed biofilm; format: cell-based, Candida auris; settings: biofilm treated at 24 h, XTT
[13] = system: A. flavus ATCC MYA-3631 (strain S); experiment: MIC determination (broth microdilution); format: cell-based, Aspergillus flavus; settings: strain S = A. flavus ATCC MYA-3631; MIC-0; 72 h at 35° C.
[14] = system: C. albicans ATCC 10231 (strain B) pre-formed biofilm; experiment: Disruption of pre-formed biofilm (XTT); format: cell-based, Candida albicans; settings: for Pre-formed biofilm SMIC90: biofilm treated at 24 h, XTT
[15] = system: C. auris AR Bank # 0389 (strain VIII); experiment: MIC determination (broth microdilution); format: cell-based, Candida auris; settings: strain VIII = C. auris AR Bank # 0389; MIC-0; 48 h (CAS read at 24 h)
[16] = system: C. auris AR Bank # 0385 (strain IV); experiment: MIC determination (broth microdilution); format: cell-based, Candida auris; settings: strain IV = C. auris AR Bank # 0385; MIC-0; 48 h (CAS read at 24 h)
[17] = system: C. auris AR Bank # 0387 (strain VI); experiment: MIC determination (broth microdilution); format: cell-based, Candida auris; settings: strain VI = C. auris AR Bank # 0387; MIC-0; 48 h (CAS read at 24 h)

| Molecule | MIC [1] | MIC (in parentheses) [1] | MIC [2] | MIC (in parentheses) [2] | MIC [3] | MIC (in parentheses) [3] | MIC [4] | MIC (in parentheses) [4] | MIC [5] | MIC (in parentheses) [5] | Pre-formed biofilm SMIC90 [7] | IC50 (HEK-293) | IC50 (BEAS-2B) | IC50 (A549) | IC50 (J774A.1) | MIC [8] | MIC (in parentheses) [8] | MIC [9] | MIC (in parentheses) [9] | cell survival [10] | further results |
| --- | --- | --- | --- | --- | --- | --- | --- | --- | --- | --- | --- | --- | --- | --- | --- | --- | --- | --- | --- | --- | --- |
| CC(=O)OC[C@H]1O[C@@H]([S-])[C@H](OC(C)=O)[C@@H](OC(C)=O)[C@@H]1OC(C)=O.CCP(CC)CC.[Au+] [Auranofin, auranofin, reference compound] | > 31.3 µg/mL | > 46.1 µM | > 31.3 µg/mL | > 46.1 µM | > 31.3 µg/mL | > 46.1 µM | 31.3 µg/mL | 46.1 µM | > 31.3 µg/mL | > 46.1 µM | >31.3 µg/mL | 3000 ± 200 nM | 1300 ± 100 nM | 500 ± 100 nM | 16200 nM | > 31.3 µg/mL | > 46.1 µM | 7.8 µg/mL | 11.5 µM | no cell survival | MIC ([6]; Candida spp.): > 31.3 µg/mL; antifungal activity ([6]; Candida spp.): no antifungal activity; antifungal activity class ([6]; Candida spp.): poor (MIC ≥15.6 μg/mL (poor antifungal activity)); MIC ([6]; two Aspergillus spp.): 3.9 µg/mL and 7.8 µg/mL; antifungal activity class ([6]; two Aspergillus spp.): good (MIC = 3.9-7.8 μg/mL (good antifungal activity)); IC50 ([10]; A549, BEAS-2B, and HEK-293 cell lines): 500 to 3000 nM; MIC [11]: 3.9 µg/mL; MIC (in parentheses) [11]: 5.7 µM; Pre-formed biofilm SMIC90 [12]: >31.3 µg/mL; MIC [13]: > 31.3 µg/mL; MIC (in parentheses) [13]: > 46.1 µM; Pre-formed biofilm SMIC90 [14]: 7.8 µg/mL; Pre-formed biofilm SMIC90 ([14]; listed as auranofin): the same SMIC90 as compound 4 |
| bis-[1,2-bis[(2R,5R)-2,5-dimethylfphospholano]benzene]gold(1) [Compound 6] | 0.49 µg/mL | 0.6 µM | 0.49 µg/mL | 0.6 µM | 0.49 µg/mL | 0.6 µM | 0.98 µg/mL | 0.6 µM | 0.98 µg/mL | 0.6 µM | 7.8 µg/mL | 5700 ± 500 nM | 4900 ± 300 nM | 2500 ± 200 nM | 1500 ± 100 nM | 1.95 µg/mL | 2.3 µM | 0.49 µg/mL | 0.6 µM | no cell survival | MIC [15]: 1.95 µg/mL; MIC (in parentheses) [15]: 2.3 µM; overall assessment as antifungals [6]: great promise; MIC [16]: 1.95 µg/mL; MIC (in parentheses) [16]: 2.3 µM; MIC [17]: 1.95 µg/mL; MIC (in parentheses) [17]: 2.3 µM; MIC [11]: 3.9 µg/mL; MIC (in parentheses) [11]: 4.6 µM; Pre-formed biofilm SMIC90 [12]: 7.8 µg/mL; MIC [13]: 7.8 µg/mL; MIC (in parentheses) [13]: 9.2 µM; SMIC90 of pre-formed biofilm relative to MIC with planktonic cells [14]: 4 fold; Pre-formed biofilm SMIC90 [14]: 3.9 µg/mL |
| bis-[1,2-bis[(2S,5S)-2,5-dimethylphospholano]benzene]gold(I) [Compound 4] | 0.98 µg/mL | 1.2 µM | 0.98 µg/mL | 1.2 µM | 0.98 µg/mL | 1.2 µM | 1.95 µg/mL | 2.3 µM | 1.95 µg/mL | 2.3 µM | 7.8 µg/mL | 1900 ± 700 nM | 2000 ± 300 nM | 4500 nM | 1500 ± 100 nM | 3.9 µg/mL and 3.96 µg/mL | 4.6 µM | 0.98 µg/mL | 1.2 µM | no cell survival | MIC [15]: 1.95 µg/mL; MIC (in parentheses) [15]: 2.3 µM; overall assessment as antifungals [6]: great promise; antifungal activity class ([6]; two C. auris strains (K and L)): good (MIC = 3.9-7.8 μg/mL (good antifungal activity)); MIC [16]: 1.95 µg/mL; MIC (in parentheses) [16]: 2.3 µM; MIC [17]: 1.95 µg/mL; MIC (in parentheses) [17]: 2.3 µM; IC50 ([10]; BEAS-2B, HEK-293, and J774A.1): 1500 to 2000 nM; MIC [11]: 3.9 µg/mL; MIC (in parentheses) [11]: 4.6 µM; Pre-formed biofilm SMIC90 [12]: 15.6 µg/mL; MIC [13]: 7.8 µg/mL; MIC (in parentheses) [13]: 9.2 µM; SMIC90 of pre-formed biofilm relative to MIC with planktonic cells [14]: 4 fold; Pre-formed biofilm SMIC90 [14]: 7.8 µg/mL |
